The subject of the experiment is L-676 mouse embryo fibroblasts. The experiment in a line: Mouse L-Cell growth inhibition test. The class given is cell-based. Particulars: 72 hours. Here is the method: L-676 mouse embryo fibroblasts were grown and maintained in liquid shake cultures of Swims-67G medium fortified by the addition of 5% fetal calf serum and supplemented with 1%, 200 millimolar glutamine.
Free drugs (without a carrier) used as controls were solubilized in either sterile distilled water or acetone and then added to the growth medium.
Drug containing HSA spherules were resuspended in growth medium. A sonifying water bath was employed to aid in suspension.
A 10% (v/v) inoculum of L-cells was employed in a final volume of 20 ml of growth medium containing suspended drug-containing microspheres or free control drug. […] All tests were performed in duplicate.

The source of these data is US4147767A, “Albumin medicament carrier system” (priority 1977, dated 1979).

Take `CC(=O)OCC(=O)[C@@]1(O)CC[C@H]2[C@@H]3CCC4=CC(=O)CC[C@]4(C)[C@H]3[C@@H](O)C[C@@]21C` [Hydrocortisone Acetate]: the “% L-Cell Inhibition” value (1 microgram drug/ml) came out at 0%, the “% L-Cell Inhibition” value (10 micrograms drug/ml) is listed as 0%, the “% L-Cell Inhibition” value (50 micrograms drug/ml) is reported as 73% and the “% L-Cell Inhibition” value (100 micrograms drug/ml) is on record as 88%.
Consider `NC(=O)NO` [Hydroxyurea], for which the “% L-Cell Inhibition” value was 0% (1 microgram drug/ml) and 22% (10 micrograms drug/ml).
On the same counts, the results for `COc1cc2c(c(OC)c1OC)-c1ccc(OC)c(=O)cc1[C@@H](NC(C)=O)CC2` [Colchicine] are 91% and 99%.
In the case of `Sc1ncnc2nc[nH]c12` [6-Mercaptopurine], the “% L-Cell Inhibition” value (50 micrograms drug/ml) is 94%.
In the case of `O=C(O)CCCc1ccc(N(CCCl)CCCl)cc1` [Chlorambucil], the “% L-Cell Inhibition” value is 0% (1 microgram drug/ml), 68% (10 micrograms drug/ml) and 97% (50 micrograms drug/ml).
Consider `Nc1nc2nc[nH]c2c(=S)[nH]1` [6-Thioguanine], for which the “% L-Cell Inhibition” value runs as follows: (1 microgram drug/ml) 65%; (10 micrograms drug/ml) 88%; (50 micrograms drug/ml) 92%.
Consider `CS(=O)(=O)OCCCCOS(C)(=O)=O` [Busulfan], for which the “% L-Cell Inhibition” value (25.0 μg drug/ml) was found to be 69%.
With `O=c1[nH]cc(F)c(=O)[nH]1` [Pure 5-fluorouracil, 5-fluorouracil], the “% L-Cell Inhibition” value (1 microgram drug/ml) worked out at 67%, the “% L-Cell Inhibition” value (10 micrograms drug/ml) is 88%, the “% L-Cell Inhibition” value (50 micrograms drug/ml) came out at 93% and the “% L-Cell Inhibition” value (100 micrograms drug/ml) amounted to 93%.
